Four compounds from patent US20240115654A1, “INTRAVENOUS ADMINISTRATION OF ENGINEERED ANTIMICROBIAL AMPHIPHILIC PEPTIDES” (priority 2021, published 2024) can be followed below.

Assay [1] relates to P. aeruginosa strains (PAO1 and 2 clinical isolates). Description: Determination of bacterial resistance, passage at 0.5×MIC with daily MIC. The class given is cell-based, Pseudomonas aeruginosa. The conditions noted are these: three P. aeruginosa strains, exposure at 0.5×MIC, FIG. 20. The source says: Each antibiotic was compared for their propensity to select for bacterial resistance phenotypes in vitro.

For assay [2], the system named is S. aureus strain SH1000 biofilms. As to the kind of experiment: In vitro biofilm disruption on stainless steel rods. The class given is cell-based, Staphylococcus aureus. The conditions noted are these: S. aureus SH1000, 10×MIC, up to 24 hours, FIG. 15. The source says: FIG. 15 depicts the effect of administration of SEQ ID NO:1 and cefazolin on biofilm maintenance. […] SEQ ID NO:1 eliminated mature implant biofilms on a model strain of S. aureus, SH1000.

The subject of a further assay is S. aureus. As to the kind of experiment: Periprosthetic joint infection model, implant biofilm CFU. The class given is in vivo. The note with it: mouse, intraperitoneal; SEQ ID NO:1 0.1-10 mg/kg; compared to untreated control mice, FIG. 16. How it is done:
Periprosthetic joint infection was modeled in a mouse by placing an intra-articular K-wire through the medullary canal of the proximal femur followed by intra-articular inoculation with S. aureus. Animals were treated systemically with an intraperitoneal delivery of cefazolin, rifampin, or the exemplary peptide of SEQ ID NO: 1. Intraperitoneal delivery was chosen due to technical difficulties associated with intravenous delivery. Implant sonication and proximal femur homogenate were used to quantify viable bacteria.

For assay [3], the system named is Acinetobacter baumannii ATCC 19606 (non-MDR). The class given is cell-based. The conditions noted are these: ATCC 19606. As to the method:
(§1) Each peptide was formulated in PBS buffer prior to testing. Peptides of SEQ ID NO:5 and SEQ ID NO:8 were brought up in 100% DMSO with 0.002% polysorbate-80 at 1.28 mg/mL (40× the highest final test concentration of 32 mcg/mL). Final test concentration of DMSO was 2.5% in the assay at the first dilution for those two compounds.
(§2) Mueller Hinton II broth (MHB II; BD; Lot Nos. 6258541 and 7143896) was used for MIC testing of aerobic organisms. 0.002% polysorbate 80 (P80) was added to the test medium.
(§3) MIC values were determined using a broth microdilution procedure described by CLSI (1, 3). Automated liquid handlers (Multidrop 384, Labsystems, Helsinki, Finland; Biomek 2000 and Biomek FX, Beckman Coulter, Fullerton CA) were used to conduct serial dilutions and liquid transfers.
(§4) To prepare the drug mother plates, which would provide the serial peptide dilutions for the replicate daughter plates, the wells of columns 2-12 of standard 96-well microdilution plates (Costar 3795) were filled with 150 μl of the designated diluent for each row of peptide. The test articles and comparator compounds (300 μl at 40× the highest concentration to be tested) were dispensed into the appropriate wells in column 1. The Biomek 2000 was then used to make 2-fold serial dilutions in the mother plates from column 1 through column 11. The wells of Column 12 contained no drug and served as the organism growth control wells for the assay.
(§5) The daughter plates were loaded with 185 μL per well of MHB II using the Multidrop 384. The daughter plates were completed on the Biomek FX instrument which transferred 5 uL of peptide solution from each well of a mother plate to the corresponding well of each daughter plate in a single step. A standardized inoculum of each test organism was prepared per CLSI methods. The inoculum for each organism was dispensed into sterile reservoirs divided by length (Beckman Coulter), and the Biomek 2000 was used to inoculate the plates. Daughter plates were placed on the Biomek 2000 work surface in reverse orientation so that inoculation took place from low to high drug concentration. The plates were then inoculated with 10 μL of the inoculum resulting in a final cell density of approximately 5×10^5 CFU/mL, per well.
(§6) Plates were stacked 3-4 high, covered with a lid on the top plate, placed in plastic bags, and incubated at 35° C. for 16 to 20 hrs. Following incubation, the microplates were removed from the incubator and viewed from the bottom using a plate viewer. […] The MIC was read and recorded as the lowest concentration of peptide that inhibited visible growth of the organism.

Assay [4] deals with Acinetobacter baumannii ATCC BAA-1797 (MDR). The class given is cell-based. The conditions noted are these: ATCC BAA-1797. How it is done: as §1, §2, §3, §4, §5, §6
In assay [5] the test system is Enterococcus faecalis ATCC 29212 (VSE; QC). The class given is cell-based. The conditions noted are these: ATCC 29212. As to the method: as §1, §2, §3, §4, §5, §6
The subject of assay [6] is Enterococcus faecalis ATCC 700802 (V583 VRE). The class given is cell-based. The note with it: ATCC 700802. As to the method: as §1, §2, §3, §4, §5, §6
For assay [7], the system named is Enterococcus faecium ATCC 51559 (VRE). The class given is cell-based. The note with it: ATCC 51559. As to the method:
as §1, §2, §3, §4, §5, §6

The subject of assay [8] is Escherichia coli ATCC 25922 (QC). The class given is cell-based. The note with it: ATCC 25922. As to the method:
as §1, §2, §3, §4, §5, §6

In assay [9] the test system is Escherichia coli ATCC 35218 (ESBL). The class given is cell-based. The note with it: ATCC 35218. How it is done:
as §1, §2, §3, §4, §5, §6

Assay [10] concerns Escherichia coli ATCC BAA-2471 (NDM-1). The class given is cell-based. The note with it: ATCC BAA-2471. How it is done:
as §1, §2, §3, §4, §5, §6

Assay [11] concerns Klebsiella pneumoniae ATCC BAA-1705 (KPC). The class given is cell-based. The conditions noted are these: ATCC BAA-1705. As to the method:
as §1, §2, §3, §4, §5, §6

Assay [12] has as its system Pseudomonas aeruginosa ATCC 27853 (non-MDR; QC). The class given is cell-based. The note with it: ATCC 27853. As to the method:
as §1, §2, §3, §4, §5, §6

Assay [13] has as its system Pseudomonas aeruginosa ATCC BAA-2109 (MDR). The class given is cell-based. The note with it: ATCC BAA-2109. As to the method: as §1, §2, §3, §4, §5, §6
The subject of assay [14] is Staphylococcus aureus ATCC 29213 (MSSA; QC). The class given is cell-based. The conditions noted are these: ATCC 29213. How it is done: as §1, §2, §3, §4, §5, §6
Assay [15] deals with Staphylococcus aureus ATCC 43300 (MRSA). The class given is cell-based. The note with it: ATCC 43300. How it is done: as §1, §2, §3, §4, §5, §6
Assay [16] concerns Staphylococcus aureus NRS382 (USA100; HA-MRSA). The class given is cell-based. The note with it: USA100. As to the method: as §1, §2, §3, §4, §5, §6
Assay [17] deals with Streptococcus pneumoniae ATCC 49619 (QC). The class given is cell-based. The note with it: ATCC 49619. How it is done:
as §1, §2, §3, §4, §5, §6

The test system of assay [18] is Streptococcus pyogenes ATCC 49399. The class given is cell-based. The conditions noted are these: ATCC 49399. How it is done: as §1, §2, §3, §4, §5, §6

Converted amounts (≈) assume the structure as drawn. Peptide text beside a SMILES is read from it.

Turning to LL-37 [LL37], the “time to development of resistance (fold MIC >10)” value in [1] was ≤ 9 days.
For `Cc1nnc(SCC2=C(C(=O)O)N3C(=O)[C@@H](NC(=O)Cn4cnnn4)[C@H]3SC2)s1` [cefazolin], the “reduction of mature biofilm on stainless steel rods” value in [2] is recorded as “did not achieve a three-log reduction”. Also, the “reduction of implant biofilm CFU burden (sonicate culture)” value in the assay with S. aureus was “one log reduction in viable bacteria”.
For `CO[C@H]1/C=C/O[C@@]2(C)Oc3c(C)c(O)c4c(O)c(c(/C=N/N5CCN(C)CC5)c(O)c4c3C2=O)NC(=O)/C(C)=C\C=C\[C@H](C)[C@H](O)[C@@H](C)[C@@H](O)[C@@H](C)[C@H](OC(C)=O)[C@@H]1C` [Rifampin], the “reduction of implant biofilm CFU burden (sonicate culture)” value with S. aureus is reported as “comparable reduction in biofilms sonicate as compared to SEQ ID NO:1”. Moreover, the “time to development of resistance (fold MIC >10)” value in assay [1] was ≤ 3 days.
Take `CC[C@H](C)[C@H](N)C(=O)N[C@@H](CCCNC(=N)N)C(=O)N[C@@H](CCCNC(=N)N)C(=O)N[C@H](C(=O)N[C@H](C(=O)N[C@@H](CCCNC(=N)N)C(=O)N[C@@H](CCCNC(=N)N)C(=O)N[C@H](C(=O)N[C@@H](CCCNC(=N)N)C(=O)N[C@@H](CCCNC(=N)N)C(=O)N[C@H](C(=O)N[C@H](C(=O)N[C@@H](CCCNC(=N)N)C(=O)N[C@@H](CCCNC(=N)N)C(=O)N[C@H](C(=O)N[C@@H](CCCNC(=N)N)C(=O)N[C@@H](CCCNC(=N)N)C(=O)N[C@H](C(=O)N[C@H](C(=O)N[C@@H](CCCNC(=N)N)C(=O)N[C@@H](CCCNC(=N)N)C(=O)O)[C@@H](C)CC)[C@@H](C)CC)[C@@H](C)CC)[C@@H](C)CC)[C@@H](C)CC)[C@@H](C)CC)[C@@H](C)CC)[C@@H](C)CC` [SEQ ID NO: 4] (H-IRRIIRRIRRIIRRIRRIIRR-OH; N-terminus and C-terminus assumed): the minimum inhibitory concentration (MIC) (commonly the lowest concentration found to suppress growth) in assay [3] came out at 8 µg/mL (≈ 2.75 µM); in [4] it was 8 µg/mL (≈ 2.75 µM); in assay [5] it was 8 µg/mL (≈ 2.75 µM); in [6], 8 µg/mL (≈ 2.75 µM); in [7] it was 4 µg/mL (≈ 1.37 µM); in assay [8], 4 µg/mL (≈ 1.37 µM). Also, the MIC in assay [9] is 8 µg/mL (≈ 2.75 µM); in assay [10], 4 µg/mL (≈ 1.37 µM); in [11], 32 µg/mL (≈ 11 µM); in assay [12], 8 µg/mL (≈ 2.75 µM); in assay [13], 4 µg/mL (≈ 1.37 µM); in assay [14], 8 µg/mL (≈ 2.75 µM). In addition, the MIC in [15] is 4 µg/mL (≈ 1.37 µM); in [16], 4 µg/mL (≈ 1.37 µM); in [17] it was 16 µg/mL (≈ 5.5 µM); in assay [18] it was 16 µg/mL (≈ 5.5 µM).
